Reference: US8057790B2, “Treatment of malodour” (Blis Technologies Limited, priority 2003, dated 2011)
Several values for one entry are separate records, joined by “and”; a condition that tells them apart may be missing. Equal values may be shown once.

Columns and labels:
[1] = test system: halitosis subjects; test: Volatile sulphur compound (VSC) breath readings by halimeter in halitosis subjects; type: in vivo, human; conditions: three recalled subjects
Excerpt: Sixty-five subjects were screened for volatile sulphur compound (VSC) breath readings by halimeter (Interscan Corp., Chatsworth, Calif.). VSC readings in persons with normal breath are typically in the range of 80-150 ppb. At levels of 200-300 ppb oral malodor is noticeable by an observer standing close to the patient. At 350-400 ppb, the odour is noticeable by an observer standing several feet away from the patient. Those subjects with breath scores of greater than 200 ppb on two separate visits were recruited for the study (n=13). Each signed an Informed Consent under a protocol approved by the Otago Ethics Committee. Subject's upon their second positive visit undertook a mechanical and chemical treatment of their mouths at the laboratory. This consisted of teeth and tongue brushing (2 minutes with Colgate Total™ [0.3% w/v triclosan], Colgate-Palmolive, N.Y., USA), tongue scraping for 30 seconds, brushing teeth and tongue with a CHX gel (Colgate, Australia) (Perioguard 2.0% CHX mouth gel, 2 minutes) and followed by a 30 second CHX rinse (0.2% CHX, 10% ethanol alcohol). This was followed at intervals by the sucking of a lozenge (BLIS Technologies Limited, Wellington, New Zealand) (commencing 2 hours after treatment and typically 2 hours apart, 4 times daily), each containing>1×10^9 colony forming units of streptomycin-resistant S. salivarius K12. […]

[2] = test system: halitosis subjects; test: Organoleptic assessment of subjects' saliva; type: in vivo, human; conditions: three recalled subjects; 3-day CHX regimen only; seventh day; scale of 0-5
Excerpt: Sixty-five subjects were screened for volatile sulphur compound (VSC) breath readings by halimeter (Interscan Corp., Chatsworth, Calif.). VSC readings in persons with normal breath are typically in the range of 80-150 ppb. At levels of 200-300 ppb oral malodor is noticeable by an observer standing close to the patient. At 350-400 ppb, the odour is noticeable by an observer standing several feet away from the patient. Those subjects with breath scores of greater than 200 ppb on two separate visits were recruited for the study (n=13). Each signed an Informed Consent under a protocol approved by the Otago Ethics Committee. Subject's upon their second positive visit undertook a mechanical and chemical treatment of their mouths at the laboratory. […]
Fresh saliva samples and tongue swabs were tested for N-benzoyl-DL-arginine-2-naphthylamide (BANA) hydrolysis (BANAMet ILC, Ann Arbor, Mich.), since positive scores by the BANA test have previously been associated with the presence of malodour-forming enzyme activities of certain oral bacterial species (1, 3). […] The samples were graded according to the same criteria used to assess breath air of halitosis sufferers (7), using a scale of 0-5, with 0 equating to no odour detected and 5 the most severe.

Structure (SMILES): [H]/N=C(\N/C(=N/[H])NCCCCCCNC(=N)NC(=N)Nc1ccc(Cl)cc1)Nc1ccc(Cl)cc1 [CHX, chlorhexidine]
- change in VSC, organoleptic or BANA readings after treatment with CHX only [1]: no decrease
- Post CHX treatment Saliva organoleptic [2]: 2 and 3
